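Assay format: 96-well plates, 48-hour exposure. The concentration for 50% growth inhibition is given as GI50.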 The source made the active and inactive calls. Cut-off read from the data, not from the text of the source: active = GI50 up to about 1.1 µM and inactive = higher.
What was measured:
Experiment in all cases: inhibition of tumour cell growth, NCI panel, 48 h
UACC-257 = tested on: UACC-257
SK-MEL-28 = tested on: SK-MEL-28
UO-31 = tested on: UO-31
OVCAR-4 = tested on: OVCAR-4
SR = tested on: SR
Hs-578T = tested on: Hs-578T
SNB-75 = tested on: SNB-75
RPMI-8226 = tested on: RPMI-8226
IGROV-1 = tested on: IGROV-1
OVCAR-5 = tested on: OVCAR-5
TK-10 = tested on: TK-10
SK-MEL-2 = tested on: SK-MEL-2
MOLT-4 = tested on: MOLT-4
RXF 393 = tested on: RXF 393
U-251 = tested on: U-251
HT-29 = tested on: HT-29
MDA-MB-435 = tested on: MDA-MB-435
SK-MEL-5 = tested on: SK-MEL-5
HCT-116 = tested on: HCT-116
HOP-62 = tested on: HOP-62

SMILES	GI50 (UACC-257)	GI50 (SK-MEL-28)	GI50 (UO-31)	GI50 (OVCAR-4)	GI50 (SR)	GI50 (Hs-578T)	GI50 (SNB-75)	GI50 (RPMI-8226)	GI50 (IGROV-1)	GI50 (OVCAR-5)	GI50 (TK-10)	GI50 (SK-MEL-2)	GI50 (MOLT-4)	GI50 (RXF 393)	GI50 (U-251)	GI50 (HT-29)	GI50 (MDA-MB-435)	GI50 (SK-MEL-5)	GI50 (HCT-116)	GI50 (HOP-62)
CCOC(=O)c1c(SCCN2CCOCC2)n(-c2ccccc2)c(=S)n(-c2ccccc2)c1=O	25.8 µM (inactive)	24 µM (inactive)	> 100 µM (inactive)	> 100 µM (inactive)	18.4 µM (inactive)	37.8 µM (inactive)	76.2 µM (inactive)	33.7 µM (inactive)	42.5 µM (inactive)	> 100 µM (inactive)	> 100 µM (inactive)	> 100 µM (inactive)	26.7 µM (inactive)	18.6 µM (inactive)	> 100 µM (inactive)	19.5 µM (inactive)	47.2 µM (inactive)	27.7 µM (inactive)	–	–
Cc1ccc2c3c1O[C@H]1c4[nH]c5ccccc5c4C[C@@]4(O)[C@@H](C2)N(C)CC[C@]314	13.7 µM (inactive)	–	13.7 µM (inactive)	16.9 µM (inactive)	13.7 µM (inactive)	0.474 µM (active)	–	14.1 µM (inactive)	18 µM (inactive)	20.7 µM (inactive)	–	20.7 µM (inactive)	16.4 µM (inactive)	10.1 µM (inactive)	16 µM (inactive)	11.5 µM (inactive)	14.5 µM (inactive)	14.5 µM (inactive)	16.6 µM (inactive)	–
CCOC1OC(CO[Si](C)(C)C(C)(C)C)C(O)CC1n1ccc(=O)[nH]c1=O (centres undefined)	> 100 µM (inactive)	61.4 µM (inactive)	> 100 µM (inactive)	> 100 µM (inactive)	42.6 µM (inactive)	> 100 µM (inactive)	> 100 µM (inactive)	49.8 µM (inactive)	21.5 µM (inactive)	> 100 µM (inactive)	> 100 µM (inactive)	> 100 µM (inactive)	27.7 µM (inactive)	30.8 µM (inactive)	> 100 µM (inactive)	47.5 µM (inactive)	> 100 µM (inactive)	59.2 µM (inactive)	17.1 µM (inactive)	–
c1ccc2cc(CNCCOCCOCCNCc3ccc4ccccc4c3)ccc2c1	1.49 µM (inactive)	1.97 µM (inactive)	–	2.47 µM (inactive)	1.26 µM (inactive)	1.57 µM (inactive)	1.95 µM (inactive)	1.19 µM (inactive)	1.7 µM (inactive)	1.9 µM (inactive)	1.62 µM (inactive)	1.91 µM (inactive)	1.92 µM (inactive)	1.78 µM (inactive)	1.97 µM (inactive)	1.31 µM (inactive)	1.8 µM (inactive)	2.39 µM (inactive)	1.58 µM (inactive)	1.85 µM (inactive)
C[C@]12C[C@H](c3ccccc3)Nc3ccccc3N1C(c1ccccc1)=NO2	81.5 µM (inactive)	–	41.4 µM (inactive)	52 µM (inactive)	3.39 µM (inactive)	> 100 µM (inactive)	51.3 µM (inactive)	47.2 µM (inactive)	> 100 µM (inactive)	> 100 µM (inactive)	> 100 µM (inactive)	> 100 µM (inactive)	24.5 µM (inactive)	> 100 µM (inactive)	96.4 µM (inactive)	55.2 µM (inactive)	35.5 µM (inactive)	30.1 µM (inactive)	60.8 µM (inactive)	> 100 µM (inactive)
COC12OC3(C4OC41)C(C(=O)O[C@H]3CO[Si](C)(C)C(C)(C)C)C2S(=O)(=O)c1ccccc1 (some centres undefined)	> 4.65 µM (inactive)	3.48 µM (inactive)	> 4.65 µM (inactive)	–	2.63 µM (inactive)	4.65 µM (inactive)	–	1.67 µM (inactive)	–	> 4.65 µM (inactive)	4.06 µM (inactive)	> 4.65 µM (inactive)	2.25 µM (inactive)	< 0.01 µM (active)	> 4.65 µM (inactive)	–	> 4.65 µM (inactive)	–	4.16 µM (inactive)	> 4.65 µM (inactive)
c1ccc2c(c1)cc1ccc3cccc4ccc2c1c34	> 100 µM (inactive)	> 100 µM (inactive)	> 100 µM (inactive)	–	> 100 µM (inactive)	> 100 µM (inactive)	> 100 µM (inactive)	> 100 µM (inactive)	> 100 µM (inactive)	–	> 100 µM (inactive)	> 100 µM (inactive)	> 100 µM (inactive)	> 100 µM (inactive)	> 100 µM (inactive)	> 100 µM (inactive)	> 100 µM (inactive)	> 100 µM (inactive)	> 100 µM (inactive)	> 100 µM (inactive)
C#CCOC(=O)C(N)CCSC (centres undefined)	> 100 µM (inactive)	> 100 µM (inactive)	> 100 µM (inactive)	–	> 100 µM (inactive)	> 100 µM (inactive)	> 100 µM (inactive)	> 100 µM (inactive)	> 100 µM (inactive)	> 100 µM (inactive)	> 100 µM (inactive)	> 100 µM (inactive)	> 100 µM (inactive)	> 100 µM (inactive)	> 100 µM (inactive)	> 100 µM (inactive)	> 100 µM (inactive)	> 100 µM (inactive)	> 100 µM (inactive)	> 100 µM (inactive)
CC1CC2OC(=O)C(C)C2CC2(C)C(OC3OC(CO)C(O)C(O)C3O)OCCC12 (centres undefined)	> 100 µM (inactive)	> 100 µM (inactive)	–	> 100 µM (inactive)	> 100 µM (inactive)	> 100 µM (inactive)	> 100 µM (inactive)	> 100 µM (inactive)	> 100 µM (inactive)	> 100 µM (inactive)	> 100 µM (inactive)	> 100 µM (inactive)	> 100 µM (inactive)	> 100 µM (inactive)	> 100 µM (inactive)	> 100 µM (inactive)	> 100 µM (inactive)	> 100 µM (inactive)	> 100 µM (inactive)	> 100 µM (inactive)
N#Cc1c(-c2cccc(Cl)c2)cc(-c2ccc(Cl)cc2)nc1N	15.3 µM (inactive)	–	14.2 µM (inactive)	15.7 µM (inactive)	15.3 µM (inactive)	21.1 µM (inactive)	–	18.1 µM (inactive)	10.1 µM (inactive)	21.7 µM (inactive)	19.7 µM (inactive)	18.1 µM (inactive)	19 µM (inactive)	16.7 µM (inactive)	16.6 µM (inactive)	24.3 µM (inactive)	19.1 µM (inactive)	16.1 µM (inactive)	16.5 µM (inactive)	17.3 µM (inactive)
CCCCc1ccc(Nc2ncc3ncn(COCCO)c3n2)cc1	27.9 µM (inactive)	–	21.1 µM (inactive)	41.1 µM (inactive)	17.1 µM (inactive)	20.8 µM (inactive)	24.8 µM (inactive)	16.4 µM (inactive)	28.6 µM (inactive)	32.7 µM (inactive)	37.8 µM (inactive)	25.2 µM (inactive)	21.6 µM (inactive)	26.8 µM (inactive)	39.4 µM (inactive)	21.8 µM (inactive)	29.4 µM (inactive)	21.8 µM (inactive)	21 µM (inactive)	26.6 µM (inactive)
COc1ccc(Oc2cccc(C3C4C(=O)N(c5ccc(C)c(Cl)c5)C(=O)C4ON3C(C(N)=O)c3ccccc3)c2)cc1 (centres undefined)	10.7 µM (inactive)	41.5 µM (inactive)	29.6 µM (inactive)	18.9 µM (inactive)	9.98 µM (inactive)	17.9 µM (inactive)	6.08 µM (inactive)	–	18.8 µM (inactive)	17.7 µM (inactive)	19.4 µM (inactive)	11.2 µM (inactive)	11.8 µM (inactive)	7.6 µM (inactive)	16.6 µM (inactive)	9.33 µM (inactive)	15.5 µM (inactive)	9.55 µM (inactive)	14 µM (inactive)	35.2 µM (inactive)
CC(C)(C)[Si](C)(C)Oc1ccc(C2CNC(=O)C23CCC(=O)N3Cc2ccccc2)cc1 (centres undefined)	12.4 µM (inactive)	–	16 µM (inactive)	13.7 µM (inactive)	7.96 µM (inactive)	7.31 µM (inactive)	17.8 µM (inactive)	4.15 µM (inactive)	15.3 µM (inactive)	17.5 µM (inactive)	13.2 µM (inactive)	16.6 µM (inactive)	6.14 µM (inactive)	10.7 µM (inactive)	12.5 µM (inactive)	12.2 µM (inactive)	12.4 µM (inactive)	5.71 µM (inactive)	22.2 µM (inactive)	20.5 µM (inactive)
Clc1ccc(C2=NN=C3C(c4ccccc4)=Nc4ccccc4N3C2)cc1	5.73 µM (inactive)	37.5 µM (inactive)	3.72 µM (inactive)	2.01 µM (inactive)	1.08 µM (active)	2.09 µM (inactive)	–	2.63 µM (inactive)	7.87 µM (inactive)	–	3.89 µM (inactive)	17.7 µM (inactive)	0.957 µM (active)	1.48 µM (inactive)	5.46 µM (inactive)	3.01 µM (inactive)	4.72 µM (inactive)	3.27 µM (inactive)	4.17 µM (inactive)	10.8 µM (inactive)
CC(=O)Nc1sc(Br)cc1S(=O)(=O)c1ccc(Cl)cc1	29.9 µM (inactive)	57.3 µM (inactive)	22.5 µM (inactive)	23.2 µM (inactive)	14.6 µM (inactive)	20 µM (inactive)	28.2 µM (inactive)	23.2 µM (inactive)	44.4 µM (inactive)	26.2 µM (inactive)	46.7 µM (inactive)	30.1 µM (inactive)	35.1 µM (inactive)	20 µM (inactive)	34.8 µM (inactive)	16.9 µM (inactive)	28.1 µM (inactive)	> 10 µM (inactive)	26.1 µM (inactive)	–
